Results as given in ChEMBL document CHEMBL3244373, “Stereoselective effects of cis- and trans-cyclopropylbis (dioxopiperazines) related to ICRF-159 on metastases of hamster lung adenocarcinoma” (J Med Chem, 1978).
Active and inactive are the calls of the source. No cut-off for these calls is given here.

Experiments:
Mesocricetus auratus [1] = experiment: Antimetastatic activity against Syrian hamster LG1002 cells allografted to Syrian golden hamster LSH/LAK assessed as reduction of lung metastases at 15 mg/kg, ip for every 48 hrs for 4 weeks measured after 48 hrs of last treatment relative to saline control; type: functional, organism-based; parameters: dose 15 mg/kg
[2] = Induction of tumor growth in Syrian hamster LG1002 cells in allografted Syrian golden hamster at 15 mg/kg, ip for every 48 hrs for 4 weeks measured after 48 hrs of last treatment on day 28; type: organism-based, Mesocricetus auratus; parameters: dose 15 mg/kg, route intraperitoneal; settings: in vivo
[3] = Induction of tumor growth in Syrian hamster LG1002 cells in allografted Syrian golden hamster at 15 mg/kg, ip for every 48 hrs for 4 weeks measured after 48 hrs of last treatment; type: organism-based, Mesocricetus auratus; parameters: dose 15 mg/kg, route intraperitoneal; settings: in vivo
Mesocricetus auratus [4] = experiment: Antimetastatic activity against Syrian hamster LG1002 cells allografted to Syrian golden hamster LSH/LAK assessed as reduction of lung metastases at 15 mg/kg, ip for every 48 hrs for 4 weeks measured after 48 hrs of last treatment relative to carboxymethylcellulose; type: functional, organism-based; parameters: dose 15 mg/kg

| Compound | inhibition (Mesocricetus auratus [1]) | Activity [2] [mm2] | Activity [3] | inhibition (Mesocricetus auratus [4]) |
| --- | --- | --- | --- | --- |
| O=C1CN([C@H]2C[C@@H]2N2CC(=O)NC(=O)C2)CC(=O)N1 (relative stereo) | inactive | > 100 | Toxic | inactive |
| O=C1CN([C@@H]2C[C@@H]2N2CC(=O)NC(=O)C2)CC(=O)N1 | Active |  | Non-toxic | Active |
